Experimental data published in patent publication US4940790A, “5-(3-alkyl-5-tert.butyl-4-hydroxyphenyl)-2-amino-6H-1,3,4-thiadiazines” (Hoechst Aktiengesellschaft, priority 1987, dated 1990).
Structures can show the parent of a compound that is named as a salt. Where two headings read alike, the source gives them in different places.

Columns and labels:
in vivo = conditions: mouse, ip; for LD50 at 168 h: read-out: Acute toxicity LD50
Experimental: The LD50 values were determined by a standard method from the mortality occurring within 7 days in NMRI (Naval Medical Research Institute) mice (6 animals per dose) after a single intraperitoneal (i.p.) administration.

adjuvant arthritis = assay: Adjuvant arthritis (method of Pearson), reduction in the increase in paw volume; type: in vivo, male rats of a Wistar-Lewis strain; conditions: Rattus norvegicus, po; for inhibition in vivo at 50 mg/kg: 50 mg/kg p.o., once daily day 1 to day 5, rats; for ED50: read-out: ED50 in adjuvant arthritis; for inhibition in vivo at 12.5 mg/kg: * 12.5 mg/kg p.o.
Description: 1. […] The experimental animals used were male rats of a Wistar-Lewis strain having a body weight between 130 and 200 g. […] The animals in a control group received only the vehicle. Each preparation and control group comprised 8 animals. The criterion for action was the percentage reduction in the increase in paw volume compared to that of the untreated control group.

[1] = Acute gastral ulcerogenity; set-up: species or system male Sprague-Dawley rats; conditions: rat, in vivo, po
Experimental: 2. Acute gastral ulcerogenity
The investigation took place on 10 male Sprague-Dawley rats whose gastric mucous membrane had been sensitized by hunger stress. The body weight of the animals was between 200 and 300 g. While allowing free access to the drinking water, the feed was withdrawn from the animals 48 hours before administration of the test preparations until sacrifice of the animals. The rats were sacrificed 24 hours after oral substance administration, and the stomachs were removed, cleaned under running water and inspected for mucous membrane lesions. All macroscopically visible lesions were regarded as ulcers. The number of animals having ulcers was determined for each dose, and the UD50 values, i.e. the doses at which lesions were caused in 50% of the animals, were calculated from these figures by the method of Litchfield and Wilcoxon (J. Pharmacol. Exp. Ther. 96 (1949), p. 99).

acetic acid stretching = assay: Analgesic action: acetic acid stretching test; type: in vivo, female mice of a NMRI strain; conditions: Mus musculus, 0.25 h; oral dose of 158 mg/kg, mice; read-out: Animals relieved of pain in %
Experimental: The analgesic action of the compounds of the formula I according to the invention was tested by means of the acetic acid stretching test on mice by the method of R. Koster et al., Fed. Prod. 18 (1959), p. 412.
The experimental animals used were female mice of a NMRI strain having a body weight (BW) between 21 and 28 g. Groups of 12 animals each received 0.1 ml/10 g of BW of a 0.6% strength acetic acid solution injected intraperitoneally. The test substances were administered 30 minutes beforehand. Immediately after the injection of acetic acid, the animals were placed alone and the number of typical stretching movements occurring within 15 minutes were counted, which comprise a brief tensing of the stomach muscles including the flank parts and subsequent stretching of the rear body and at least one read extremity.
The test substances were administered orally in a volume of 10 ml/kg of BW in a 1% strength aqueous carboxymethylcellulose (CMC) suspension.

[2] = system: Adriamycin-induced inflammation; assay: Antioxidative action: inhibition of Adriamycin (doxorubicin) induced inflammation; type: in vivo, male Sprague-Dawley rats; conditions: for Protective effect against Adriamycin-induced tissue destruction (in words): rats, oral; for Increase in paw volume: after 72 hours, control 390
Description: 4. Antioxidative action According to current opinion, aggressive oxygen radicals, which are formed to excess during the chronic inflammation process and, as highly toxic inflammation mediators themselves, perpetually maintain the connective tissue destruction proceeding via irreversible lipid peroxidation of the cell membranes, participate prominently in the progressive course, caused by a number of factors, of rheumatoid arthritis and other inflammatory disorders. As a result, antioxidatively active pharmaceuticals which are capable of deactivating these extremely cytotoxic oxygen radicals should allow specific intervention in the chronic course of the inflammation. A suitable animal model for this type of tissue destruction caused by oxygen radicals is Adriamycin (doxorubicin) induced inflammation in rats. The investigations were carried out by the method of D. M. Siegel et al. (Inflammation 4 (1980), p. 233) on male Sprague-Dawley rats having a body weight of between 200 and 230 g in groups each with 7 animals, which received 0.1 mg of Adriamycin, dissolved in 0.1 ml of 0.9% strength sodium chloride solution, by subcutaneous injection into the left rear paw. The increase in paw volume after 72 hours was determined by plethysmography measurement as a measure of the degree of inflammation. The test preparations were administered orally once daily on the 4 successive days, starting with the day of Adriamycin injection, in a 1% strength aqueous carboxymethylcellulose suspension.

5-lipoxygenase = biological target: T1, 5-lipoxygenase (Homo sapiens, UniProt P09917); assay: Inhibition of 5-lipoxygenase: LTB4 formation in isolated polymorphonuclear human granulocytes; type: cell-based; conditions: ionophor A 23 187, LTB4 by HPLC, 37° C.
T1 construct: in-vitro experiments on isolated polymorphonuclear human granulocytes; endogenous in cells; host or cells: isolated human polymorphonuclear granulocytes
T1 sequence (P09917 1-674): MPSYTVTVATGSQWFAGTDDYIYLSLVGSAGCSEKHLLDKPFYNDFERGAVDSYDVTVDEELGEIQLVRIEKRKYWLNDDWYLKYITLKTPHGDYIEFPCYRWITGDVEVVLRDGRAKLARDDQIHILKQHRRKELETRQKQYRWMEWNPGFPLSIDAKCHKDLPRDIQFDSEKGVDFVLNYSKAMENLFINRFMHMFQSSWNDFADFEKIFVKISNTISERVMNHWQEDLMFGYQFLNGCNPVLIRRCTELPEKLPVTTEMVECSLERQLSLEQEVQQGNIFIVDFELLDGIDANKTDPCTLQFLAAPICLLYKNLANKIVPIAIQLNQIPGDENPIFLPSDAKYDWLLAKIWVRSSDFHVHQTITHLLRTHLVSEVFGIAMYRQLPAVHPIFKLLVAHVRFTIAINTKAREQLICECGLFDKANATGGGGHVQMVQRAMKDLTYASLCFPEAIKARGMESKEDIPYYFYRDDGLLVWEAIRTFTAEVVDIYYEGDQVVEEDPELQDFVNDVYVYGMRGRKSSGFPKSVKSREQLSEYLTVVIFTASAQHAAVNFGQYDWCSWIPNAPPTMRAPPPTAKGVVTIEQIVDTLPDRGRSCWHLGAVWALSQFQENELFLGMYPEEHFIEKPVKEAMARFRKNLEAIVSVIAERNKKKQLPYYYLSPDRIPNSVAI
Experimental: 5. Inhibition of 5-lipoxygenase
The inhibitory action of the compounds according to the invention of 5-lipoxygenase-catalysed degradation of arachidonic acid was determined, as usual, in in-vitro experiments on isolated polymorphonuclear human granulocytes. To this purpose, the cells were incubated at 37° C. with the particular test preparation and the formation of pro-inflammatoryleukotriene B4 (LTB4) was induced after 5 minutes using the calcium ionophor A 23 187 (Calbiochem GmbH, Frankfurt/Main, FRG, Biochemical and Immunochemical Catalog 1985, p. 284). The amount of LTB4 liberated over a period of 10 minutes was determined quantitatively with the aid of a UV detector after separation by means of high-pressure liquid chromatography (HPLC).

[3] = 50 mg/kg p.o., *Significance p <0.05
[4] = single i.p., NMRI mice, mortality within 7 days

Row | SMILES | LD50 at 168 h (in vivo) [mg/kg] | inhibition in vivo at 50 mg/kg (adjuvant arthritis) [%] | TD50 at 24 h [1] [mg/kg] | responders at 158 mg/kg (acetic acid stretching) [%] | other results
1 | CC(C)(C)c1cc(C2=NN=C(NCc3ccccc3)SC2)cc(C(C)(C)C)c1O [Example 12] | 600 to 1200 | 65 | > 200 | – | –
2 | CN(Cc1ccccc1)C1=NN=C(c2cc(C(C)(C)C)c(O)c(C(C)(C)C)c2)CS1 [Example 13] | 600 to 1200 | 71 | > 200 | 42 | –
3 | COc1ccc2cc(C(C)C(=O)O)ccc2c1 (stereo not shown) [naproxen, 2-(6-methoxy-2-naphthyl)-propionic acid, reference compound] | – | 55 | – | – | ED50 (adjuvant arthritis): 17.5 mg/kg; Protective effect against Adriamycin-induced tissue destruction (in words) [2]: ineffective
4 | C=CCNC1=NN=C(c2cc(C(C)(C)C)c(O)c(C(C)(C)C)c2)CS1 [Example 14] | 600 to 1200 | 75 | > 200 | 67 | Protective action ([2]; 25 mg/kg p.o.): 36%; Increase in paw volume ([2]; 25 mg/kg p.o.): 250 µL; Protective action [2, 3]: 59%; Increase in paw volume ([2]; 50 mg/kg p.o.): 160 µL; Protective effect against Adriamycin-induced tissue destruction (in words) [2]: strong, dose-dependent protective effect
5 | CN(C)C1=NN=C(c2cc(C(C)(C)C)c(O)c(C(C)(C)C)c2)CS1 [Example 1, 5-(3,5-di-tert.butyl-4-hydroxyphenyl)-2-dimethylamino-6H-1,3,4-thiadiazinehydrobromide] | 600 to 1200 | – | 200 | 83 | selectivity ratio (in vivo; LD50 (i.p. mice) divided by ED50 (adjuvant arthritis, rats), read-out: LD50/ED50 quotient): ~150; inhibition in vivo at 12.5 mg/kg (adjuvant arthritis; rats): 69%; ED50 (adjuvant arthritis; from the dose/action curve, p.o., rats): 6 mg/kg; selectivity ratio [1]: ~33; IC50 (5-lipoxygenase): 9 µM; Protective action ([2]; 25 mg/kg p.o.): 10%; Increase in paw volume ([2]; 25 mg/kg p.o.): 350 µL; Protective action [2, 3]: 69%; Increase in paw volume ([2]; 50 mg/kg p.o.): 120 µL; Protective effect against Adriamycin-induced tissue destruction (in words) [2]: strong, dose-dependent protective effect
6 | CC(C)(C)c1cc(C2=NN=C(N3CCCCC3)SC2)cc(C(C)(C)C)c1O [Example 18] | > 1200 | 74 | 100 | – | –
7 | CCCN(CCC)C1=NN=C(c2cc(C(C)(C)C)c(O)c(C(C)(C)C)c2)CS1 [Example 11] | > 1200 | 54 | 100 to 200 | – | –
8 | CC1SC(N(C)C)=NN=C1c1cc(C(C)(C)C)c(O)c(C(C)(C)C)c1 (stereo not shown) [Example 22] | 600 to 1200 | – | > 200 | 92 | inhibition in vivo at 12.5 mg/kg (adjuvant arthritis; rats): 84%
9 | CNC1=NN=C(c2cc(C(C)(C)C)c(O)c(C(C)(C)C)c2)CS1 [Example 4, 5-(3,5-di-tert.butyl-4-hydroxyphenyl)-2-methylamino-6H-1,3,4-thiadiazine-hydrochloride] | – | 81 | 100 to 200 | 83 | LD50 at 168 h (in vivo; [4]): 300 to 600 mg/kg
10 | Cc1cc(C2=NN=C(N(C)C)SC2)cc(C(C)(C)C)c1O [Example 3, 5-(5-tert.butyl-3-methyl-4-hydroxyphenyl)-2-dimethylamino-6H-1,3,4-thiadiazine hydrobromide] | – | 58 | > 200 | 42 | LD50 at 168 h (in vivo; [4]): 600 to 1200 mg/kg; IC50 (5-lipoxygenase): 4 µM
11 | CN1CCN(C2=NN=C(c3cc(C(C)(C)C)c(O)c(C(C)(C)C)c3)CS2)CC1 [Example 20] | 150 to 300 | 72 | 200 | – | –
12 | CCN(CC)C1=NN=C(c2cc(C(C)(C)C)c(O)c(C(C)(C)C)c2)CS1 [Example 9] | 600 to 1200 | – | > 200 | – | inhibition in vivo at 12.5 mg/kg (adjuvant arthritis; rats): 55%
13 | CCN(C1=NN=C(c2cc(C(C)(C)C)c(O)c(C(C)(C)C)c2)CS1)C(C)C [Example 10] | > 1200 | 82 | 200 | – | –
14 | CC(C)(C)c1cc(C2=NN=C(N3CCCC3)SC2)cc(C(C)(C)C)c1O [Example 17] | – | – | – | – | IC50 (5-lipoxygenase): 10 µM
15 | CCN(C)C1=NN=C(c2cc(C(C)(C)C)c(O)c(C(C)(C)C)c2)CS1 [Example 8] | 300 to 600 | – | > 200 | 92 | inhibition in vivo at 12.5 mg/kg (adjuvant arthritis; rats): 61%; IC50 (5-lipoxygenase): 13 µM
16 | CC1CCN(C2=NN=C(c3cc(C(C)(C)C)c(O)c(C(C)(C)C)c3)CS2)CC1 [Example 2, 5-(3,5-di-tert.butyl-4-hydroxyphenyl)-2-(4-methylpiperidino)-6H-1,3,4-thiadiazine hydrobromide] | – | 62 | 100 | 75 | LD50 at 168 h (in vivo; [4]): 600 to 1200 mg/kg
